Results reported in US7157487B2, “Vla-4 inhibitors” (Daiichi Pharmaceutical Co., Ltd., priority 2000, dated 2007).

Biological target: T1, integrins haα4 and β1 (VLA-4) expressed on CHO cells (Homo sapiens, UniProt P05556+P13612)
T1 construct: expressed in transfected cells; host or cells: CHO cells
Assay: In vitro Evaluation Test (1): binding of Eu3+-hVCAM-1 D1D7-IgG to CHO cells expressing integrins α4 and β1
Settings: inhibition of Eu3+-hVCAM-1 D1D7-IgG binding to CHO cells expressing α4β1; Ki calculated from IC50
Procedure: CHO cells forcedly expressed by the transduction of integrins haα4 and β1 were seeded in a Coster 3599 plate (3×10^4 cells/100 μl/well) and they were cultured for 2 days. After the medium was washed with buffer A* twice, 50 μl/well of Eu^3+-hVCAM-1 D1D7-IgG diluted to […] with an assay buffer ** was added. To the resulting well was added 50 μl/well of a test compound diluted with 2% DMS0-assay buffer (in the presence or absence of 6% human serum albumin) (to a well subjected to Scatchard analysis was added a solution diluted in another manner). After stirring for 5 minutes on a plate mixer, the plate was allowed to stand at room temperature for 1 hour. Then, the plate was washed four times with the buffer A and added with 100 μl/well of an enhancement reagent (DELFIA). The plate was shaken for 5 minutes on a plate mixer, followed by measurement of fluorescence intensity by a time-resolved fluorometer (DELFIA Wallac). From the binding ratio available by the following calculation formula: ((FT−FNS)−(FI−FNS))/(FT−FNS)×100, the IC50 (concentration inhibiting 50% of binding of CHO cells with hVCAM-1 D1D7-IgG) of the test compound was determined. In the above formula, FT means the fluorescence intensity of the well free of the test compound, FNS means the fluorescence intensity of the well free of the test compound and anti-hα4 antibody (SG/73), and FI means the fluorescence intensity of the well containing the test compound. The Kd indicating the binding strength and Bmax (maximum binding) were estimated within a range of 0.06 to 20 nM in accordance with the Scatchard analysis method.
The value Ki was calculated based on:
[formula] ((L) means a ligand concentration). (* buffer A: 25 mM HEPES (pH 7.5), 150 mM NaCl, 1 mM Ca^2+, 1 MM Mg^2+, 4 mM Mn^2+; ** assay buffer: 25 mM HEPES (pH 7.5), 150 mM NaCl, 1 mM Ca^2+, 1 mM Mg^2+, 4 mM Mn^2+, 0.1% BSA, 20 μM DTPA, with/without 6% ALBUMIN, HUMAN SERUM (C/N A-1653, SIGMA)) In vitro Evaluation Test (2)

T1 sequence (P13612 34-1032): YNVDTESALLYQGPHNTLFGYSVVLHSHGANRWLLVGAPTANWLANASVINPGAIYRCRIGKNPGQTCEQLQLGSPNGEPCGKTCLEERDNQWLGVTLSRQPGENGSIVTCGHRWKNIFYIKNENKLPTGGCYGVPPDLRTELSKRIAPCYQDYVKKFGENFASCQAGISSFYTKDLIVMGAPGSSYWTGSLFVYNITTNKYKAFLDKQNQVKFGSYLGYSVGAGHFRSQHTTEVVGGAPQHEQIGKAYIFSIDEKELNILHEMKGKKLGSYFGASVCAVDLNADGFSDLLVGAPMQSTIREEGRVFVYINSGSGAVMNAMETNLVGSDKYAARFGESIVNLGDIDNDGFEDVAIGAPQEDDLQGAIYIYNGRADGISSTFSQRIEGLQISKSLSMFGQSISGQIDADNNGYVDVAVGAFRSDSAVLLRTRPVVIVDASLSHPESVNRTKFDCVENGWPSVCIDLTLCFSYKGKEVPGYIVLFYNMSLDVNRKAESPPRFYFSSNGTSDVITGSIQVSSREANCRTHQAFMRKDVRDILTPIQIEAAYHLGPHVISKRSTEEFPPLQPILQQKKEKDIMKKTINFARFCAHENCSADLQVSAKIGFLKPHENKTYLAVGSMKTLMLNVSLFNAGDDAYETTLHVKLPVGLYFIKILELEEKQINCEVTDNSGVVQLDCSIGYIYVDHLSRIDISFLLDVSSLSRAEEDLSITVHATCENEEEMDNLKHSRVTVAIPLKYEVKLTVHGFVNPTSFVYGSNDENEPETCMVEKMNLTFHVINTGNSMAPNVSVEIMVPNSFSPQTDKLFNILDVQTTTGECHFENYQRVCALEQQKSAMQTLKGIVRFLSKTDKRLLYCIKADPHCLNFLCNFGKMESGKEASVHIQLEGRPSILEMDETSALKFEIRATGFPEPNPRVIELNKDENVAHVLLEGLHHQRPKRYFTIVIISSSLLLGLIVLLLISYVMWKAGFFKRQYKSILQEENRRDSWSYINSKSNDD
T1 sequence (P05556 21-798): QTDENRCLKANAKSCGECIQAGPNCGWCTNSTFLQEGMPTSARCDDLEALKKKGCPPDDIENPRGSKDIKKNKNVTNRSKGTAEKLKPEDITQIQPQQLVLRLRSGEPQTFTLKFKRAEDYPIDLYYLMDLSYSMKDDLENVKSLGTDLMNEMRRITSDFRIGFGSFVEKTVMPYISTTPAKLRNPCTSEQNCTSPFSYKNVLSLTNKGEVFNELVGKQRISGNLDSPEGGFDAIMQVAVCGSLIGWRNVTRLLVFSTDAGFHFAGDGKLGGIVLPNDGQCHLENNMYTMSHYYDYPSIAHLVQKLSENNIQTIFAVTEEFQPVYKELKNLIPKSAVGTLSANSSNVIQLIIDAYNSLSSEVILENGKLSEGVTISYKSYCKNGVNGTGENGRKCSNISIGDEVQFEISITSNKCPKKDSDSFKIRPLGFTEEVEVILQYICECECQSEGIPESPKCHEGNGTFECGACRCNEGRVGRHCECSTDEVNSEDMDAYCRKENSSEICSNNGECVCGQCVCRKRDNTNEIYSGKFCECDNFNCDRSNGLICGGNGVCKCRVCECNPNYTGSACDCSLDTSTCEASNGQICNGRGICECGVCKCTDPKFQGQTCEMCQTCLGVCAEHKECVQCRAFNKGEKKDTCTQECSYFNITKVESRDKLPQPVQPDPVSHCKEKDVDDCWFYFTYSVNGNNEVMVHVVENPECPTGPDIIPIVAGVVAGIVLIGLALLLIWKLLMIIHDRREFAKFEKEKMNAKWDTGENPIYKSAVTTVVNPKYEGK

| Structure (SMILES) | Ki |
| --- | --- |
| COC[C@@H]1C[C@@H](Oc2ccc(C(=O)O)cc2)CN1C(=O)Cc1ccc2nc(Nc3cc(F)ccc3C)oc2c1F [Example 159, 4-(1-((2-(5-Fluoro-2-methylphenylamino)-7-fluoro-6-benzoxazolyl)acetyl)-(2S)-methoxymethyl-(4R)-pyrrolidinyloxy)benzoic acid] | 47 nM |
| O=C(O)c1ccc(OC[C@@H]2C[C@H](F)CN2C(=O)Cc2ccc(NC(=O)c3c[nH]c4ccccc34)c(Cl)c2)cc1 [Example 15, 4-(1-(3-Chloro-4-(3-indolylcarbonylamino)phenylacetyl)-(4S)-fluoro-(2S)-pyrrolidinylmethoxy)benzoic acid] | 2.2 nM |
| COC[C@H]1C[C@@H](CO[C@H]2CC[C@H](C(=O)O)CC2)N(C(=O)Cc2ccc3nc(Nc4cc(F)ccc4C)oc3c2F)C1 [Example 140, trans-4-(1-(7-Fluoro-2-(5-fluoro-2-methylphenylamino)-6-benzoxazolylacetyl)-(4S)-methoxymethyl-(2S)-pyrrolidinylmethoxy)cyclohexanecarboxylic acid] | 1.8 nM |
| Cc1ccc(F)cc1Nc1nc2ccc(CC(=O)N3C[C@@H](F)C[C@H]3COc3ccc(C(=O)O)cc3)cc2o1 [Example 146, 4-(1-((2-(5-Fluoro-2-methylphenylamino)-6-benzoxazolyl)acetyl)-(4S)-fluoro-(2S)-pyrrolidinylmethoxy)benzoic acid] | 21 nM |
| Cn1cc(-c2nc3ccc(CC(=O)N4C[C@@H](F)C[C@H]4CN[C@H]4CC[C@H](C(=O)O)CC4)c(F)c3o2)c2ccccc21 [Example 108, trans-4-(N-(1-((7-Fluoro-2-(1-methyl-3-indolyl)-6-benzoxazolyl)acetyl)-(4S)-fluoro-(2S)-pyrrolidinylmethyl)amino)cyclohexanecarboxylic acid] | 21 nM |
| CN(C)C(=O)CO[C@H]1C[C@@H](CO[C@H]2CC[C@H](C(=O)O)CC2)N(C(=O)Cc2cc(Cl)c(NC(=O)c3cn(C)c4ccccc34)cc2F)C1 [Example 120, trans-4-(1-((5-Chloro-2-fluoro-4-(1-methyl-3-indolylcarbonylamino)phenyl)acetyl)-(4S)-dimethylcarbamoylmethoxy-(2S)-pyrrolidinylmethoxy)-1-cyclohexanecarboxylic acid] | 1.9 nM |
| Cn1cc(C(=O)Nc2cc(F)c(CC(=O)N3C[C@@H](F)C[C@H]3C(=O)N[C@H]3CC[C@H](C(=O)O)CC3)cc2Cl)c2ccccc21 [Example 111, trans-4-((1-(5-Chloro-2-fluoro-4-((1-methyl-3-indolylcarbonyl)amino)phenylacetyl)-(4S)-fluoro-(2S)-pyrrolidinyl)carbonylamino)cyclohexanecarboxylic acid] | 2.6 nM |
| CS[C@H]1C[C@@H](CO[C@H]2CC[C@H](C(=O)O)CC2)N(C(=O)Cc2ccc3nc(Nc4cc(F)ccc4C)oc3c2F)C1 [Example 126, trans-4-(1-((2-(5-Fluoro-2-methylphenylamino)-7-fluoro-6-benzoxazolyl)acetyl)-(4S)-methylthio-(2S)-pyrrolidinylmethoxy)cyclohexanecarboxylic acid] | 2 nM |
| Cc1ccccc1Nc1nc2ccc(CC(=O)N3CC[C@@H](Oc4ccc(C(=O)O)cc4)C3)cc2o1 [Example 34, 4-(1-(2-(2-Methylphenylamino)-6-benzoxazolylacetyl)-(3R)-pyrrolidinyloxy)benzoic acid] | 26 nM |
| Cn1cc(C(=O)Nc2ccc(CC(=O)N3C[C@@H](F)C[C@H]3COc3ccc(C(=O)O)cc3)cc2Cl)c2ccccc21 [Example 147, 4-(1-((3-Chloro-4-((1-methyl-3-indolylcarbonyl)amino)phenyl)acetyl)-(4S)-fluoro-(2S)-pyrrolidinylmethoxy)benzoic acid] | 40 nM |
| CC(=O)N(C)[C@H]1C[C@@H](CO[C@H]2CC[C@H](C(=O)O)CC2)N(C(=O)Cc2cc(Cl)c(NC(=O)c3cn(C)c4ccccc34)cc2F)C1 [Example 142, trans-4-(1-((5-Chloro-2-fluoro-4-(1-methyl-3-indolylcarbonylamino)phenyl)acetyl)-(4S)-(N-methylacetamido)-(2S)-pyrrolidinylmethoxy)-1-cyclohexanecarboxylic acid] | 18 nM |
| Cc1ccccc1Nc1nc2ccc(CC(=O)N3C[C@@H](F)C[C@H]3COc3ccc(C(=O)O)cn3)cc2o1 [Example 18, 6-((4S)-Fluoro-1-(2-(2-methylphenylamino)-6-benzoxazolylacetyl)-(2S)-pyrrolidinylmethoxy)nicotinic acid] | 7.8 nM |
| Cc1ccccc1Nc1nc2ccc(CC(=O)N3C[C@@H](N(C)C)C[C@H]3COc3ccc(C(=O)O)cc3)cc2o1 [Example 7, 4-((4S)-Dimethylamino-1-(2-(2-methylphenylamino)-6-benzoxazolylacetyl)-(2S)-pyrrolidinylmethoxy)benzoic acid] | 7.1 nM |
| CO[C@H]1C[C@@H](CO[C@H]2CC[C@H](C(=O)O)CC2)N(C(=O)Cc2ccc3nc(Nc4ccccc4Cl)oc3c2F)C1 (relative stereo) [Example 114, trans-4-(1-((2-(2-chlorophenylamino)-7-fluoro-6-benzoxazolyl)acetyl)-(4S)-methoxy-(2S)-pyrrolidinylmethoxy)cyclohexanecarboxylic acid] | 4.8 nM |
| O=C(Nc1ccc(CC(=O)N2C[C@@H](F)C[C@H]2C(=O)N[C@H]2CC[C@H](C(=O)O)CC2)cc1Cl)c1nccc2ccccc12 [Example 112, trans-4-((1-(3-Chloro-4-((1-isoquinolinylcarbonyl)amino)phenylacetyl)-(4S)-fluoro-(2S)-pyrrolidinyl)carbonylamino)cyclohexanecarboxylic acid] | 6.5 nM |

Second part, the molecule after the results:

| Ki | Structure (SMILES) |
| --- | --- |
| 18 nM | O=C(Nc1ccc(CC(=O)N2C[C@@H](F)C[C@H]2CO[C@H]2CC[C@H](C(=O)O)CC2)cc1Cl)c1nccc2ccc(F)cc12 [Example 82, trans-4-(1-((3-Chloro-4-((7-fluoro-1-isoquinolinylcarbonyl)amino)phenyl)acetyl)-(4S)-fluoro-(2S)-pyrrolidinylmethoxy)cyclohexanecarboxylic acid] |
| 32 nM | O=C(Cc1ccc(Nc2nc3cccc(F)c3o2)c(Cl)c1)N1C[C@@H](F)C[C@H]1CO[C@H]1CC[C@H](C(=O)O)CC1 [Example 53, trans-4-(1-(3-Chloro-4-(2-(7-fluorobenzoxazolyl))aminophenylacetyl)-(4S)-fluoro-(2S)-pyrrolidinylmethoxy)cyclohexanecarboxylic acid] |
| 1.9 nM | Cn1cc(-c2nc3ccc(CC(=O)N4C[C@@H](F)C[C@H]4COC4CCC(C(=O)O)CC4)cc3o2)c2ccccc21 (stereo partly drawn) [Example 40, 4-((4S)-Fluoro-1-(2-(1-methyl-3-indolyl)-6-benzoxazolylacetyl)-(2S)-pyrrolidinylmethoxy)cyclohexanecarboxylic acid] |
| 0.31 nM | O=C(Nc1ccc(CC(=O)N2C[C@@H](F)C[C@H]2CO[C@H]2CC[C@H](C(=O)O)CC2)cc1Br)c1c[nH]c2ccccc12 [Example 64, trans-4-(1-((3-Bromo-4-((3-indolylcarbonyl)amino)phenyl)acetyl)-(4S)-fluoro-(2S)-pyrrolidinylmethoxy)cyclohexanecarboxylic acid] |
| 29 nM | Cc1ccccc1Nc1nc2ccc(CC(=O)N3C[C@H](O)C[C@H]3CO[C@H]3CC[C@H](C(=O)O)CC3)cc2o1 [Example 122, trans-4-((4R)-Hydroxy-1-((2-(2-methylphenylamino)-6-benzoxazolyl)acetyl)-(2S)-pyrrolidinylmethoxy)cyclohexanecarboxylic acid] |
| 47 nM | O=C(Cc1ccc2nc(-c3nccc4ccccc34)oc2c1)N1C[C@@H](F)C[C@H]1CO[C@H]1CC[C@H](C(=O)O)CC1 [Example 102, trans-4-(1-(2-(1-Isoquinolinyl)-6-benzoxazolylacetyl)-(4S)-fluoro-(2S)-pyrrolidinylmethoxy)cyclohexanecarboxylic acid] |
| 12 nM | O=C(Nc1ccc(CC(=O)N2C[C@@H](F)C[C@H]2CO[C@H]2CC[C@H](C(=O)O)CC2)cc1Cl)c1nccc2ccccc12 [Example 80, trans-4-(1-((3-Chloro-4-((1-isoquinolinylcarbonyl)amino)phenyl)acetyl)-(4S)-fluoro-(2S)-pyrrolidinylmethoxy)cyclohexanecarboxylic acid] |
| 7.2 nM | O=C(Cc1ccc(Nc2nc3ccc(Cl)cc3s2)c(Cl)c1)N1C[C@@H](F)C[C@H]1CO[C@H]1CC[C@H](C(=O)O)CC1 [Example 59, trans-4-(1-(4-(6-Chloro-2-benzothiazolyl)amino-3-chlorophenylacetyl)-(4S)-fluoro-(2S)-pyrrolidinylmethoxy)cyclohexanecarboxylic acid] |
